The values that follow come from patent US20010029347A1, “Transdermal administrating device” (POLYTRONICS, LTD., priority 2000, published 2001).

Details of data set [1]: species or system HWY hairless rats. The note with it: HWY hairless, rat, in vivo. How it is done:
Transdermal administrating devices were attached on the back of each body of HWY hairless rats. A number of the rats were three a group. The concentration of L-ascorbic acid in blood was chemically detected to control the drug concentration in the blood [M^−]. The procedure thereof is described hereunder.
First, a calibration line was prepared. The EB was set at 1.5 V and the transdermal administrating device was attached on the back of each of the test rats.
In addition, blood examination for the rats was performed at those times. From the blood examination, the concentration of ascorbic acid in blood [M^−] was determined.
Next, using the calibration line shown in FIG. 5, the concentration of ascorbic acid in blood [M^−] was promptly converged to a constant value.
According to the indication from the CPU 6, the bias DC power supply 7 was operated to set EB=8V.
When the concentration of ascorbic acid in blood [M^−] should be maintained at a constant value, for example, at 5 (arb. unit) in FIG. 5, the Rd0 should be 6.3 kΩ (kilo ohm) based on the calibration line shown in FIG. 5.
In this case, when the Rd was determined, the EB was temporarily changed to 1.5 V and the voltage drop Vi at the external load was measured.
At the measurement after the current flowing time has elapsed for 20 minutes, the Rd was lower than the Rd0. The CPU 6 operated to feed back the bias voltage to reduce the bias voltage EB.

Data set [2] can be described thus: Concentration of Polyoxomethalate ion in blood of nude mouse during iontophoresis with transdermal administrating device V (Example 5, no bias power supply). The data set is classed as in vivo. How it is done: When the transdermal administrating device V according to Example 5 was loaded on the back of a nude mouse, the chemical cell formed by the active electrode 22 and the inert electrode 24 generated an electromotive force of about 2.9V.
Removing the variable resistor 31 out of the circuit, the measurement and arithmetic operation for Rd and the measurement of the blood concentration in blood [M^−] were performed to prepare a calibration line representing the relationship between the Rd and the [M^−].
Next, a Rd0 value corresponding to a target concentration [M^−]0 was determined from the calibration line and the variable resistor […] was connected to the circuit.
The concentration of drug was controlled by controlling the value of the variable resistor 31 with measuring the Rd at varying times.

For the compound `O=C1O[C@H]([C@@H](O)CO)C(O)=C1O` [ascorbic acid, L-ascorbic acid], in data set [1], the “concentration of ascorbic acid in blood [M-], overshoot value” is listed as “about 6.5 arb. unit” and the “time after the beginning of flowing a current to converge to constant blood concentration” value was “about 1.5 hours”. The “concentration of ascorbic acid in blood [M-], converged constant value” in data set [1] (1.5 hours) was about 5 arb. unit.
On to K5[SiVW11O40] [Polyoxomethalate ion], for which the “time after the beginning of flowing a current from which blood concentration [M-] is kept at the target concentration” value in data set [2] (control by variable resistor, no bias DC power supply) is recorded as “about 2 hours”. Besides, the “permeability (iontophoresis through skin)” value in data set [2] (without bias DC power supply) was “high permeability”.
